This is an account of results in patent US11959079B2, “Methods for treating apolipoprotein E4-associated disorders” (priority 2009, dated 2024).

Common to all, as to format: in vivo
In test [1] the test system is female apoE4-KI mice. As to the kind of experiment: Quantification of GAD67-positive hilar GABAergic interneurons, apoE4-KI mice. As to conditions: 16-month-old female apoE4-KI mice; 20 mg/kg i.p. On the procedure:
(§1) Human apoE3-KI and apoE4-KI mice (Sullivan et al., 2004) were from Taconic. Tau−/− mice (Dawson et al., 2001) were backcrossed onto the mE−/− background, and mE−/−Tau−/− mice were crossed with apoE4(Δ272-299)mE−/− Tau+/+ mice. Studies were conducted on female mice at 1, 3, 6, 12, 16, or 21 months of age. All mice were on a C57BL/6 genetic background. Some apoE4-KI and apoE4(Δ272-299)mE−/−Tau+/+ mice received daily intraperitoneal injections of pentobarbital (20 mg/kg) or saline in their home cages for 21 days before the first day of Morris Water Maze (MWM) training and 1 h after daily training. Some apoE4(Δ272-299)mE−/−Tau−/− mice were given daily injections of picrotoxin (1 mg/kg) or saline intraperitoneally in their home cages for 3 days before MWM training and 30 min before daily training. […]
(§2) Sliding microtome sections (30 μm) were immunostained with the following primary antibodies: polyclonal goat anti-human apoE (1:8000 for fluorescence; Calbiochem), rabbit anti-neuropeptide Y (1:8000 for […] (DAB); ImmunoStar), rat anti-somatostatin (1:100 for DAB; Chemicon), mouse anti-GAD67 (1:1000 for DAB; Chemicon), mouse anti-MAP2 (1:500 for fluorescence; Sigma), mouse anti-synaptophysin (1:500 for fluorescence; DakoCytomation), and phosphorylation-dependent monoclonal antibody AT8 (p-Ser202; 1:100 for DAB; Endogen). […]

For test [2], the system named is apoE4(Δ272-299)mE−/−Tau+/+ mice. As to the kind of experiment: Morris water maze, apoE4(Δ272-299)mE−/−Tau+/+ mice. Particulars: 12-month-old female mice, 20 mg/kg i.p., 21 days before and every day during MWM, vs saline. The procedure:
(§3) Human apoE3-KI and apoE4-KI mice (Sullivan et al., 2004) were from Taconic. Tau−/− mice (Dawson et al., 2001) were backcrossed onto the mE−/− background, and mE−/−Tau−/− mice were crossed with apoE4(Δ272-299)mE−/− Tau+/+ mice. Studies were conducted on female mice at 1, 3, 6, 12, 16, or 21 months of age. All mice were on a C57BL/6 genetic background. Some apoE4-KI and apoE4(Δ272-299)mE−/−Tau+/+ mice received daily intraperitoneal injections of pentobarbital (20 mg/kg) or saline in their home cages for 21 days before the first day of Morris Water Maze (MWM) training and 1 h after daily training. Some apoE4(Δ272-299)mE−/−Tau−/− mice were given daily injections of picrotoxin (1 mg/kg) or saline intraperitoneally in their home cages for 3 days before MWM training and 30 min before daily training. Brain tissues were collected after a 1-min transcardial perfusion with 0.9% NaCl. One hemibrain from each mouse was fixed in 4% paraformaldehyde, sectioned (30 μm) with a microtome, and immunostained as described below. All experiments were performed in accordance with NIH and institutional guidelines.
The water maze pool (diameter, 122 cm) contained opaque water (22-23° C.) with a platform 10 cm in diameter. […] Performance was monitored with an EthoVision video-tracking system (Noldus Information Technology).

Test [3] deals with female apoE4-KI mice. As to the kind of experiment: Morris water maze, spatial learning and memory, apoE4-KI mice. The procedure:
as §3
(§4) The water maze pool (diameter, 122 cm) contained opaque water (22-23° C.) with a platform 10 cm in diameter. The platform was submerged 1.5 cm during hidden platform sessions (Harris et al., 2003; Raber et al., 1998; Roberson et al., 2007) and marked with black-and-white-striped mast (15 cm high) during cued training sessions. Mice were trained to locate the hidden platform (hidden days 1-5) and the cued platform (visible days 1-3) in two daily sessions (3.5 h apart), each consisting of two 60-s trials (hidden and cued training) with a 15-min intertrial interval. The platform location remained constant in the hidden platform sessions but was changed for each cued platform session. Entry points were changed semirandomly between trials. Twenty-four, 72, and 96 hours after the last hidden platform training, a 60-s probe trial (platform removed) was performed. Entry points for the probe trial were in the west quadrant, and the target quadrant was in the southeast quadrant. Performance was monitored with an EthoVision video-tracking system (Noldus Information Technology).

A further test deals with wildtype mice. As to the kind of experiment: Morris water maze, wildtype mice. Particulars: 12-month-old female wildtype mice, 1 mg/kg i.p., 3 days before and every day during MWM. On the procedure: as §4
Another test concerns mE−/−Tau+/+ mice. As to the kind of experiment: Morris water maze, mE−/−Tau+/+ mice. Particulars: 12-month-old female mE−/−Tau+/+ mice, 1 mg/kg i.p., 3 days before and every day during MWM. The procedure: as §4
The test system of test [4] is apoE4(Δ272-299)mE−/−Tau−/− mice. Nature of the test: Quantification of GAD67-positive hilar GABAergic interneurons, apoE4(Δ272-299)mE−/−Tau−/− mice. As to conditions: 12-month-old female mice, 1 mg/kg i.p., 3 days before and every day during MWM. On the procedure: as §1, §2
For test [5] the test system is unchanged. As to the kind of experiment: Morris water maze, apoE4(Δ272-299)mE−/−Tau−/− mice. The procedure: as §3
as §4, with “Entry points for the probe trial were in the west quadrant, and the target quadrant was in the southeast quadrant.” left out

“Also recorded” adds a separate entry of the source.

Take `CCCC(C)C1(CC)C(=O)NC(=O)NC1=O` (centres unmarked) [pentobarbital]: the “number of hilar GABAergic interneurons” value in the test on female apoE4-KI mice [1] is reported as “did not alter”. Moreover, the “learning deficit (hidden platform sessions)” value in test [2] was “rescued the learning and memory deficits; also recorded: rescued the learning deficit; also recorded: learned better than saline-treated apoE4(Δ272-299)mE−/−Tau+/+ mice (p<0.01)”. In the test with female apoE4-KI mice [3] (16-month-old apoE4-KI mice, probe trial 96 h after last hidden session, 20 mg/kg i.p.), the “memory deficits in probe trial (target quadrant and target cross tests)” value is reported as “rescued memory deficits”. Also, the “learning and memory deficits” value with female apoE4-KI mice [3] (16-month-old female apoE4-KI mice, 20 mg/kg i.p. daily, 21 days before and during MWM) is “rescued the learning and memory deficits”. Also, the “learning curve (escape latency, hidden platform days)” value in the test with female apoE4-KI mice [3] (16-month-old female apoE4-KI mice, 20 mg/kg i.p., 21 days before and daily during MWM, vs saline) is on record as “differed from that of saline-treated apoE4-KI mice (p<0.05, repeated-measures ANOVA) but resembled that of untreated apoE3-KI mice”. Besides, the “learning deficit / learning curve (hidden platform)” value in the test with female apoE4-KI mice [3] (21-month-old female apoE4-KI mice, 20 mg/kg, 21 days before and daily during MWM, vs saline, 20 mg/kg) is given as “rescued; also recorded: differed from that of saline-treated apoE4-KI mice (p<0.05, repeated-measures ANOVA) but resembled that of saline-treated apoE3-KI mice”.
On to picrotoxin, for which the “learning and memory performance” value in the test with wildtype mice was “does not alter the learning and memory performance”; in the test on wildtype mice (listed as Picrotoxin) it was “did not alter”; in the test with mE−/−Tau+/+ mice, “does not alter the learning and memory performance”; in the test on mE−/−Tau+/+ mice (listed as Picrotoxin), “did not alter”. Further, the “number of hilar GABAergic interneurons (GAD67-positive)” value in test [4] is on record as “unaltered; also recorded: does not alter”. Moreover, in test [5] (1 mg/kg i.p., 3 days before and daily during MWM, vs saline-treated controls), the “learning curve (hidden platform)” value is on record as “resembled that of saline-treated apoE4(Δ272-299)mE−/−Tau+/+ mice”. For the same compound, the “target crossing test in probe trial” value in test [5] (probe trial 24 h after last hidden session, 1 mg/kg i.p.) is listed as “performed significantly worse”. In test [5] (subthreshold dose 1 mg/kg i.p., 3 days before and daily during MWM), the “rescue (prevention) of learning and memory deficits by tau removal” value was “abolished”.
